Structures can show the parent of a compound that is named as a salt. Where two headings read alike, the source gives them in different places.
What was measured:
[1] = molecular target: T1, carnitine palmitoyl transferase in liver mitochondria (Rattus norvegicus, UniProt P32198); assay: Inhibition of carnitine palmitoyl transferase activity in liver mitochondria; assay type: biochemical; conditions: for inhibition at 0.05 µM / inhibition at 0.1 µM / inhibition at 0.5 µM / inhibition at 1 µM / inhibition at 2 µM / inhibition at 5 µM / inhibition at 10 µM / inhibition at 50 µM: read-out: % Inhibition ± SEM, liver; for inhibition at 0.1 µM: 0.10 μM; for inhibition at 0.5 µM: 0.50 μM
T1 construct: from tissue; host or cells: rat liver mitochondria
T1 sequence (P32198 1-773): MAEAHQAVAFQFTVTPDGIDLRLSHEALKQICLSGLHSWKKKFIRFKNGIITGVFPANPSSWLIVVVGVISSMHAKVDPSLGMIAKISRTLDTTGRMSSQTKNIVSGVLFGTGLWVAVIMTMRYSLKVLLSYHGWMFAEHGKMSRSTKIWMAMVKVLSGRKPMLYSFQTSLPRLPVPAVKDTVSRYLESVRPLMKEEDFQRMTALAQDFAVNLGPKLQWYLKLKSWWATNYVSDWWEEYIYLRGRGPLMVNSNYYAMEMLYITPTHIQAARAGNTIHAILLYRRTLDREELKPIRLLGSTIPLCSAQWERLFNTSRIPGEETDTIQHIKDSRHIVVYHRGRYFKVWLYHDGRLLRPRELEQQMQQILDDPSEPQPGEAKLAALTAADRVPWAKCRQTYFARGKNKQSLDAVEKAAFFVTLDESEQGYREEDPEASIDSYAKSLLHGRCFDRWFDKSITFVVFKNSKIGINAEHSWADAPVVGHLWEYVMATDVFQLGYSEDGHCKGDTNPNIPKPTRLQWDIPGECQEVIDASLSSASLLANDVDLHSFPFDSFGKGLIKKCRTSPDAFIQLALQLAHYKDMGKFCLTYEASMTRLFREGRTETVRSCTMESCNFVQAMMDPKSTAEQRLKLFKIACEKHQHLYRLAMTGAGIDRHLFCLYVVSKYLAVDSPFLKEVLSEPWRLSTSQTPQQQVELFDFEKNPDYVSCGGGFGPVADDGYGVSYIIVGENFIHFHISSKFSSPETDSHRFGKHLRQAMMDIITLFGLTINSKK
Experimental: (§1) The following assay measures the ability of the compounds of the invention to inhibit the activity of carnitine palmitoyl transferase in liver and heart mitochondria.
(§2) According to this procedure, the following steps are carried out:
(§3) (1) Isolation of Mitochondria
(§4) (a) liver mitochondria: 5 g of liver from a 300 g rat is minced, homogenized with 40 ml (30 ml for heart mitochondria) of 0.25M sucrose, 10 mM Tris and 1 mM EDTA, pH 7.4 and centrifuged at 600 xg for 15 minutes. The decanted supernatant is centrifuged at 7,900 xg for 15 minutes. The resultant pellet is resuspended in 20 ml total (16 ml total for the heart mitochondria) of sucrose buffer and centrifuged 7,900 xg for 15 minutes. The pellet is then resuspended in 30 ml total (11 ml for heart mitochondria) of 0.15M KCl, 5 mM Tris.Cl, pH 7.4 and this is used as the enzyme source.
(§5) To 28 3 ml glass test tubes is added 350 μl of the following mixture:
(§6) 81 mg of FFA free albumin
(§7) 1.5 ml of 0.5 mM palmitoyl CoA
(§8) Then there are added to these test tubes 50 μl of water, 50 μl of 10 mM carnitine and 0.25 μCi^3 H-carnitine, and the tubes are placed in a 30° C. water bath.
(§9) (3) Mitochondrial Suspensions
(§10) Twelve plastic incubation tubes are prepared by adding the following to the tubes:
(§11) To each of the tubes, except 1 and 3, are added 30 μl of 200 mM ATP, 20 μl of 333 mM MgCl2 and 50 μl of 1.5 mg/ml CoA. 800 μl of mitochondria from step (1) above are added to each tube, and the tubes are incubated at room temperature for 20 minutes. The tubes are centrifuged at 7,900 xg for 3 minutes and the resultant pellet is resuspended in 1 ml chilled 150 mM KCl, 5 mM TRIS, pH 7.4.
(§12) 50 μl of mitochondrial suspension from step (3) above is added to the 28 tubes from step (2) as follows: (at 15 second intervals):
(§13) The tubes are incubated for 5 minutes at 30° C. and then there is added to each tube, at 15-second intervals, 50 μl of concentrated HCl, 1.45 ml water and 1 ml of n-butanol. The tubes are mixed, chilled in ice for 20 minutes and then centrifuged for 10 minutes at 2500 rpm to clarify the layers. Thereafter, 500 μl of the upper butanol layer of each tube is pipetted into 100 μl of water and 500 μl butanol saturated water, the tubes are mixed and chilled in ice for 20 minutes and centrifuged again for 10 minutes at 2500 rpm. 200 μl of the butanol layer of each tube is pipetted into a scintillation vial to which is added 10 ml of Aquasol, and the samples are counted in a Packard Tri-Carb Scintillation Counter.
(§14) The results are used to calculated the percentage of inhibition of carnitine palmitoyl transferase by the compounds tested.
When tested in the above assay using liver mitochondria alone, other compounds of the invention give the following results.

[2] = molecular target: T2, carnitine palmitoyl transferase in heart mitochondria (Rattus norvegicus, UniProt Q63704); assay: Inhibition of carnitine palmitoyl transferase activity in heart mitochondria; assay type: biochemical; conditions: for inhibition at 0.1 µM: 0.10 μM; for inhibition at 0.5 µM: 0.50 μM
T2 construct: to obtain a heart mitochondria fraction; from tissue; host or cells: rat heart mitochondria
T2 sequence (Q63704 1-772): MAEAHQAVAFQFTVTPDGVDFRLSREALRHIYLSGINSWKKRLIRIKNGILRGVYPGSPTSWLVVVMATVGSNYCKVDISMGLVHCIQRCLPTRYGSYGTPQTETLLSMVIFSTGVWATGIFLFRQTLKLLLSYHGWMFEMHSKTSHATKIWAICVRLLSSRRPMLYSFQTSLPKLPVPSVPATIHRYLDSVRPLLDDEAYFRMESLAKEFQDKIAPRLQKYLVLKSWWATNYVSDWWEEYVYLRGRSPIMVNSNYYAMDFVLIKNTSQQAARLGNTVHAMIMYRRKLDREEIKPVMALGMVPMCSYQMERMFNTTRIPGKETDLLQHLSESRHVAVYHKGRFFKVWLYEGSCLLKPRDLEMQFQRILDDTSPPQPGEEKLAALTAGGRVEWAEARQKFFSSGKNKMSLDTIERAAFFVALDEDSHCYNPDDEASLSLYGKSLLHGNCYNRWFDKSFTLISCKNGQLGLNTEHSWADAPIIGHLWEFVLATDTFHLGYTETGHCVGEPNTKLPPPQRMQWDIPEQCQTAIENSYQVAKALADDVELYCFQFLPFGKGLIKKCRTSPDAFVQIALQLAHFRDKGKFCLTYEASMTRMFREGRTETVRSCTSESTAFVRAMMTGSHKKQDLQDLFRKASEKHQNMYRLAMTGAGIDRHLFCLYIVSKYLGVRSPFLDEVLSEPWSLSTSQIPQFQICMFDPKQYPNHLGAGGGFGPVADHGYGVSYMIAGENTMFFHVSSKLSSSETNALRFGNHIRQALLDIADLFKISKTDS
Experimental: as §1, §2, §3, §4
(b) heart mitochondria: four rat hearts are processed as described in step (a) above to obtain a heart mitochondria fraction.
as §5, §6, §7, §8, §9, §10, §11, §12, §13, §14

[3] = Bachmann et al. 1984, Lee et al. 1982 and 1985; cited from earlier work
[4] = Table 2 (Example 10), liver mitochondria alone, read-out: % Inhibition of Hepatic CPTase, IC50
[5] = read-out: % Inhibition ± SEM, heart
[6] = 50.0 μM, read-out: % Inhibition ± SEM, heart
[7] = Table 1, liver mitochondria, ± SEM, read-out: IC50, liver
[8] = at 50 μM, Example 9, second (untitled) table, read-out: % Maximal Inhibition of Cardiac CTPase at 50 μM
[9] = Example 9, second (untitled) table, liver mitochondria, read-out: Inhibition of Hepatic CPTase, IC50

COC(=O)C1(C(F)CCCCCOc2ccc(Cl)cc2)CO1 (single isomer, unassigned) [3 (isomer A), 2-[6-(4-chlorophenoxy)-1-fluorohexyl]-2-oxiranecarboxylic acid methyl ester]
IC50 [1, 4]: 850 nM

COC(=O)C1(C(F)CCCCCOc2ccc(Cl)cc2)CO1 (single isomer, unassigned) [3 (isomer B), 2-[6-(4-Chlorophenoxy)-1-fluorohexyl]-2-oxiranecarboxylic acid methyl ester]
IC50 [1, 4]: 1750 nM

COC(=O)C1(C(F)CCCCc2ccccc2)CO1 (single isomer, unassigned) [Example 1 (isomer A), 2-(1-Fluoro-5-phenylpentyl)-2-oxiranecarboxylic acid methyl ester]
IC50 [1, 4]: 1080 nM

COC(=O)C1(C(F)CCCCOc2ccc(Cl)cc2)CO1 (single isomer, unassigned) [Example 2 (isomer A), 2-[5-(4-Chlorophenoxy)-1-fluoropentyl]-2-oxiranecarboxylic acid methyl ester]
inhibition at 0.05 µM [2, 5]: 6 ± 5% | inhibition at 0.1 µM [2, 5]: 17 ± 5% | inhibition at 0.5 µM [2, 5]: 18 ± 4% | inhibition at 1 µM [2, 5]: 34 ± 3% | inhibition at 2 µM [2, 5]: 35 ± 3% | inhibition at 5 µM [2, 5]: 40 ± 4% | inhibition at 10 µM [2, 5]: 50 ± 2% | inhibition at 50 µM [2, 6]: 52 ± 4% | inhibition at 0.05 µM [1]: 5 ± 3% | inhibition at 0.1 µM [1]: 11 ± 5% | inhibition at 0.5 µM [1]: 23 ± 7% | inhibition at 1 µM [1]: 61 ± 9% | inhibition at 2 µM [1]: 78 ± 7% | inhibition at 5 µM [1]: 79 ± 8% | inhibition at 10 µM [1]: 80 ± 9% | inhibition at 50 µM [1]: 82 ± 10% | IC50 [1, 7]: 970 ± 180 nM | IC50 [1, 4]: 970 nM

O=C(O)C1(C(F)CCCCOc2ccc(Cl)cc2)CO1 (single isomer, unassigned) [Example 4, 2-[5-(4-Chlorophenoxy)-1-fluoropentyl]-2-oxiranecarboxylic acid sodium salt]
IC50 [1, 4]: 500 nM

O=C(O)C1(C(F)CCCCCOc2ccc(Cl)cc2)CO1 (single isomer, unassigned) [Example 5, 2-[6-(4-Chlorophenoxy)-1-fluorohexyl]-2-oxiranecarboxylic acid sodium salt]
IC50 [1, 4]: 520 nM

CCOC(=O)C1(CCCCCCOc2ccc(Cl)cc2)CO1 (stereo not drawn) [Compound A, 2-[6-(4-chlorophenoxy)hexyl]oxirane-2-carboxylic acid ethyl ester, reference compound]
inhibition at 0.05 µM [2, 5]: 5 ± 6% | inhibition at 0.1 µM [2, 5]: 8 ± 7% | inhibition at 0.5 µM [2, 5]: 36 ± 10% | inhibition at 1 µM [2, 5]: 38 ± 15% | inhibition at 2 µM [2, 5]: 51 ± 15% | inhibition at 5 µM [2, 5]: 68 ± 11% | inhibition at 10 µM [2, 5]: 81 ± 1% | inhibition at 50 µM [2, 6]: 84 ± 1% | IC50 ([2]; Table 1, heart mitochondria, ± SEM): 250 nM | inhibition at 50 µM [2, 8]: 85 ± 2% | inhibition at 0.05 µM [1]: 9 ± 7% | inhibition at 0.1 µM [1]: 11 ± 6% | inhibition at 0.5 µM [1]: 60 ± 7% | inhibition at 1 µM [1]: 79 ± 2% | inhibition at 2 µM [1]: 82 ± 2% | inhibition at 5 µM [1]: 86 ± 3% | inhibition at 10 µM [1]: 83 ± 3% | inhibition at 50 µM [1]: 85 ± 2% | IC50 [1, 9]: 310 nM | IC50 [1, 7]: 330 ± 40 nM

COC(=O)C1(C(F)(F)CCCCCOc2ccc(Cl)cc2)CO1 (stereo not drawn) [Example 7 (gem-difluoro compound), 2-[6-(4-Chlorophenoxy)-1,1-difluorohexyl]-2-oxiranecarboxylic acid methyl ester]
inhibition at 50 µM [2, 8]: 26 ± 4% | IC50 [1, 9]: 350 nM

O=C(O)C1(C(F)(F)CCCCCOc2ccc(Cl)cc2)CO1 (stereo not drawn) [Example 8, 2-[6-(4-Chlorophenoxy)-1,1-difluorohexyl]-2-oxiranecarboxylic acid sodium salt]
inhibition at 50 µM [2, 8]: 24 ± 6% | IC50 [1, 9]: 250 nM

CCCCCCCCCCCCCCC1(C(=O)OC)CO1 (stereo not drawn) [methyl ester of 2-tetradecylglycidate]
cardiac effects from chronic administration, in words [3]: adverse cardiac effects

Reference: patent US4788306A, “Fluorooxirane carboxylates as hypoglycemic agents” (American Home Products Corporation, priority 1987, dated 1988)
